From publication PMC9474474, “Determination of pharmacokinetics and tissue distribution of a novel lutetium-labeled PSMA-targeted ligand, ^177Lu-DOTA-PSMA-GUL, in rats by using LC–MS/MS” (Scientific Reports, 2022)

Assay: Stability in rat plasma, urine, feces and 12 tissues (LC–MS/MS validation)
Assay type: in vitro ADME
Settings: for Stability Freeze-thaw: 4 cycles; for Stability Autosampler: 4 °C for 24 h; for Stability Long-term: -70 °C for two weeks; for Stability Short-term: room temperature for 4 h
Experimental: Analytical validation data including stability and process efficiency are shown in Supplementary Tables 3 and 4. […] The process efficiency in each biological matrix is generally consistent (Supplementary Table 4). […] For plasma samples, the dilution integrity was evaluated for a 10- and 20-fold dilution of QC samples at 40,000 ng/mL, which was two times higher than ULOQ, with blank matrix. The accuracy for dilution integrity was 105.56% and 102.21%, while precision was 1.03% and 2.39% for tenfold and 20-fold dilution, respectively (n = 3, each).
Supplementary Table 3. Stability (%) of 175Lu-DOTA-PSMA-GUL in the rat plasma, urine, feces,
Matrix Concentration Short-term Long-term Freeze-thaw Autosampler
(ng/mL) (n=4) (n=4) (n=4) (n=4)

[1] = rat small intestine, 4,000 ng/mL

O=C([O-])CN1CCN(CC(=O)[O-])CCN(CC(=O)[O-])C(Cc2ccc(NC(=S)NCCCC[C@H](NC(=O)N[C@@H](CCC(=O)O)C(=O)O)C(=O)O)cc2)CN(CC(=O)[O-])CC1.[Lu+3] (stereo partly drawn) [^175Lu-DOTA-PSMA-GUL, Lutetium labeled-1,4,7,10-tetraazacyclododecane-1,4,7,10-tetraacetic acid (DOTA)-PSMA-GUL]
Stability Freeze-thaw (rat brain, 400 ng/mL): 96.03 ± 3.73% | Stability Autosampler (rat brain, 400 ng/mL): 96.57 ± 0.76% | Stability Long-term (rat brain, 400 ng/mL): 94.77 ± 3.27% | Stability Short-term (rat brain, 400 ng/mL): 92.98 ± 2.86% | Stability Freeze-thaw (rat brain, 4,000 ng/mL): 102.05 ± 3.19% | Stability Autosampler (rat brain, 4,000 ng/mL): 90.60 ± 1.22% | Stability Long-term (rat brain, 4,000 ng/mL): 95.22 ± 2.73% | Stability Short-term (rat brain, 4,000 ng/mL): 98.51 ± 2.55% | Stability Freeze-thaw (rat fat, 400 ng/mL): 91.54 ± 1.36% | Stability Autosampler (rat fat, 400 ng/mL): 95.57 ± 4.47% | Stability Long-term (rat fat, 400 ng/mL): 96.21 ± 4.47% | Stability Short-term (rat fat, 400 ng/mL): 98.86 ± 3.38% | Stability Freeze-thaw (rat fat, 4,000 ng/mL): 99.64 ± 2.85% | Stability Autosampler (rat fat, 4,000 ng/mL): 95.05 ± 0.70% | Stability Long-term (rat fat, 4,000 ng/mL): 94.41 ± 3.10% | Stability Short-term (rat fat, 4,000 ng/mL): 96.74 ± 3.52% | Stability Freeze-thaw (rat feces, 400 ng/mL): 104.54 ± 6.86% | Stability Autosampler (rat feces, 400 ng/mL): 97.85 ± 3.82% | Stability Long-term (rat feces, 400 ng/mL): 103.52 ± 1.25% | Stability Short-term (rat feces, 400 ng/mL): 90.69 ± 6.38% | Stability Freeze-thaw (rat feces, 4,000 ng/mL): 105.65 ± 2.20% | Stability Autosampler (rat feces, 4,000 ng/mL): 104.03 ± 2.53% | Stability Long-term (rat feces, 4,000 ng/mL): 101.50 ± 1.39% | Stability Short-term (rat feces, 4,000 ng/mL): 104.76 ± 2.40% | Stability Autosampler (rat heart, 400 ng/mL): 98.75 ± 4.29% | Stability Long-term (rat heart, 400 ng/mL): 93.97 ± 1.45% | Stability Short-term (rat heart, 400 ng/mL): 95.08 ± 10.83% | Stability Freeze-thaw (rat heart, 4,000 ng/mL): 97.19 ± 8.21% | Stability Autosampler (rat heart, 4,000 ng/mL): 92.56 ± 3.26% | Stability Long-term (rat heart, 4,000 ng/mL): 93.50 ± 2.78% | Stability Short-term (rat heart, 4,000 ng/mL): 91.74 ± 0.93% | Stability Freeze-thaw (rat kidney, 400 ng/mL): 94.83 ± 2.49% | Stability Autosampler (rat kidney, 400 ng/mL): 95.72 ± 4.19% | Stability Long-term (rat kidney, 400 ng/mL): 95.92 ± 2.97% | Stability Short-term (rat kidney, 400 ng/mL): 95.45 ± 3.51% | Stability Freeze-thaw (rat kidney, 4,000 ng/mL): 94.30 ± 1.02% | Stability Autosampler (rat kidney, 4,000 ng/mL): 97.98 ± 2.82% | Stability Long-term (rat kidney, 4,000 ng/mL): 94.61 ± 2.50% | Stability Short-term (rat kidney, 4,000 ng/mL): 98.14 ± 3.63% | Stability Freeze-thaw (rat liver, 400 ng/mL): 95.93 ± 3.91% | Stability Autosampler (rat liver, 400 ng/mL): 97.39 ± 3.47% | Stability Long-term (rat liver, 400 ng/mL): 97.86 ± 1.87% | Stability Short-term (rat liver, 400 ng/mL): 98.94 ± 5.66% | Stability Freeze-thaw (rat liver, 4,000 ng/mL): 91.72 ± 2.23% | Stability Autosampler (rat liver, 4,000 ng/mL): 92.47 ± 2.32% | Stability Long-term (rat liver, 4,000 ng/mL): 91.83 ± 1.56% | Stability Short-term (rat liver, 4,000 ng/mL): 91.39 ± 2.47% | Stability Freeze-thaw (rat lung, 400 ng/mL): 96.40 ± 1.10% | Stability Autosampler (rat lung, 400 ng/mL): 98.84 ± 7.51% | Stability Long-term (rat lung, 400 ng/mL): 99.08 ± 2.59% | Stability Short-term (rat lung, 400 ng/mL): 98.55 ± 4.32% | Stability Freeze-thaw (rat lung, 4,000 ng/mL): 97.55 ± 0.70% | Stability Autosampler (rat lung, 4,000 ng/mL): 102.00 ± 4.06% | Stability Long-term (rat lung, 4,000 ng/mL): 95.79 ± 1.75% | Stability Short-term (rat lung, 4,000 ng/mL): 96.87 ± 1.97% | Stability Freeze-thaw (rat muscle, 400 ng/mL): 101.47 ± 2.25% | Stability Autosampler (rat muscle, 400 ng/mL): 94.93 ± 2.73% | Stability Long-term (rat muscle, 400 ng/mL): 99.56 ± 2.47% | Stability Short-term (rat muscle, 400 ng/mL): 100.99 ± 2.76% | Stability Freeze-thaw (rat muscle, 4,000 ng/mL): 94.67 ± 0.44% | Stability Autosampler (rat muscle, 4,000 ng/mL): 98.62 ± 2.06% | Stability Long-term (rat muscle, 4,000 ng/mL): 99.74 ± 4.41% | Stability Short-term (rat muscle, 4,000 ng/mL): 99.13 ± 2.50% | Stability Freeze-thaw (rat plasma, 80 ng/mL): 102.92 ± 2.77% | Stability Autosampler (rat plasma, 80 ng/mL): 97.69 ± 3.09% | Stability Long-term (rat plasma, 80 ng/mL): 100.61 ± 2.11% | Stability Short-term (rat plasma, 80 ng/mL): 106.18 ± 0.41% | Stability Freeze-thaw (rat plasma, 16,000 ng/mL): 98.68 ± 1.21% | Stability Autosampler (rat plasma, 16,000 ng/mL): 102.82 ± 1.73% | Stability Long-term (rat plasma, 16,000 ng/mL): 99.20 ± 0.51% | Stability Short-term (rat plasma, 16,000 ng/mL): 101.14 ± 2.43% | Stability Freeze-thaw (rat prostate, 400 ng/mL): 95.17 ± 3.44% | Stability Autosampler (rat prostate, 400 ng/mL): 97.82 ± 2.46% | Stability Long-term (rat prostate, 400 ng/mL): 95.50 ± 3.57% | Stability Short-term (rat prostate, 400 ng/mL): 95.76 ± 1.48% | Stability Freeze-thaw (rat prostate, 4,000 ng/mL): 99.85 ± 2.74% | Stability Autosampler (rat prostate, 4,000 ng/mL): 96.30 ± 0.83% | Stability Long-term (rat prostate, 4,000 ng/mL): 97.12 ± 3.90% | Stability Short-term (rat prostate, 4,000 ng/mL): 99.30 ± 3.24% | Stability Freeze-thaw (rat small intestine, 400 ng/mL): 99.15 ± 6.00% | Stability Autosampler (rat small intestine, 400 ng/mL): 98.68 ± 2.52% | Stability Long-term (rat small intestine, 400 ng/mL): 98.80 ± 2.76% | Stability Short-term (rat small intestine, 400 ng/mL): 99.17 ± 2.35% | Stability Freeze-thaw [1]: 100.54 ± 2.33% | Stability Autosampler [1]: 104.13 ± 2.24% | Stability Long-term [1]: 103.65 ± 4.10% | Stability Short-term [1]: 102.12 ± 2.51% | Stability Freeze-thaw (rat spleen, 400 ng/mL): 98.46 ± 3.74% | Stability Autosampler (rat spleen, 400 ng/mL): 102.59 ± 1.80% | Stability Long-term (rat spleen, 400 ng/mL): 97.10 ± 3.45% | Stability Short-term (rat spleen, 400 ng/mL): 101.61 ± 2.41% | Stability Freeze-thaw (rat spleen, 4,000 ng/mL): 104.53 ± 2.39% | Stability Autosampler (rat spleen, 4,000 ng/mL): 102.93 ± 2.02% | Stability Long-term (rat spleen, 4,000 ng/mL): 106.40 ± 3.85% | Stability Short-term (rat spleen, 4,000 ng/mL): 104.24 ± 4.36% | Stability Freeze-thaw (rat stomach, 400 ng/mL): 97.59 ± 1.68% | Stability Autosampler (rat stomach, 400 ng/mL): 100.00 ± 4.55% | Stability Long-term (rat stomach, 400 ng/mL): 99.72 ± 2.41% | Stability Short-term (rat stomach, 400 ng/mL): 98.96 ± 4.28% | Stability Freeze-thaw (rat stomach, 4,000 ng/mL): 92.47 ± 1.38% | Stability Autosampler (rat stomach, 4,000 ng/mL): 93.61 ± 2.79% | Stability Long-term (rat stomach, 4,000 ng/mL): 94.79 ± 3.41% | Stability Short-term (rat stomach, 4,000 ng/mL): 96.98 ± 3.91% | Stability Freeze-thaw (rat testis, 400 ng/mL): 107.18 ± 0.85% | Stability Autosampler (rat testis, 400 ng/mL): 101.68 ± 6.54% | Stability Long-term (rat testis, 400 ng/mL): 103.74 ± 3.80% | Stability Short-term (rat testis, 400 ng/mL): 100.51 ± 3.98% | Stability Freeze-thaw (rat testis, 4,000 ng/mL): 99.52 ± 0.96% | Stability Autosampler (rat testis, 4,000 ng/mL): 97.56 ± 4.96% | Stability Long-term (rat testis, 4,000 ng/mL): 94.96 ± 4.89% | Stability Short-term (rat testis, 4,000 ng/mL): 101.72 ± 1.48% | Stability Freeze-thaw (rat urine, 400 ng/mL): 105.67 ± 4.65% | Stability Autosampler (rat urine, 400 ng/mL): 94.03 ± 2.84% | Stability Long-term (rat urine, 400 ng/mL): 98.36 ± 1.67% | Stability Short-term (rat urine, 400 ng/mL): 91.67 ± 2.58% | Stability Freeze-thaw (rat urine, 16,000 ng/mL): 92.41 ± 1.12% | Stability Autosampler (rat urine, 16,000 ng/mL): 104.69 ± 2.03% | Stability Long-term (rat urine, 16,000 ng/mL): 100.28 ± 1.39% | Stability Short-term (rat urine, 16,000 ng/mL): 106.46 ± 1.17% | stability in each biological matrix (short-term, long-term, freeze–thaw and autosampler storage conditions): stable
